According to patent US8350007B2, “Crystal structure of human mitoNEET protein” (The Regents of the University of California, priority 2007, dated 2013):

Experiments:
[1] = molecular target: serum albumin (Homo sapiens, UniProt P02768); conditions: after patient ingestion, prior to cellular uptake; cited from earlier work
[2] = Blood glucose levels in diabetic ZDF rats treated with rosiglitazone; assay type: in vivo, rat; conditions: after three weeks of rosiglitazone 10 mg/kg by gavage
Protocol: Sixteen male ZDF rats were housed in filter cages, 2 or 3 animals per cage. Weight and blood glucose levels were measured every week. The blood glucose was measured at the fed state (07:30 am) and after 6 hours fast (1:[…]). The Animals were divided into two groups: a control group, and a rosiglitazone-treated group. Animals were treated daily for 3 weeks once a day, 5 times a week, with rosiglitazone, 10 mg/kg by gavage (0.7 ml) for the rosi-treated rats; or 0.7 ml saline for the control rats. After three weeks, liver, muscle and epididymal fat were collected and immediately frozen.
The average glucose blood level after fed of the control group was >240 mg/dl; in the rosiglitazone-treated rats some responded in a medium manner to the treatment; after three weeks of rosiglitazone treatment their glucose blood levels after fed was ˜120-140 mg/dl and some rats responded very well to rosiglitazone treatment and after three weeks their glucose blood levels after fed was ˜80 mg/dl.

serum albumin, sequence (P02768 25-609): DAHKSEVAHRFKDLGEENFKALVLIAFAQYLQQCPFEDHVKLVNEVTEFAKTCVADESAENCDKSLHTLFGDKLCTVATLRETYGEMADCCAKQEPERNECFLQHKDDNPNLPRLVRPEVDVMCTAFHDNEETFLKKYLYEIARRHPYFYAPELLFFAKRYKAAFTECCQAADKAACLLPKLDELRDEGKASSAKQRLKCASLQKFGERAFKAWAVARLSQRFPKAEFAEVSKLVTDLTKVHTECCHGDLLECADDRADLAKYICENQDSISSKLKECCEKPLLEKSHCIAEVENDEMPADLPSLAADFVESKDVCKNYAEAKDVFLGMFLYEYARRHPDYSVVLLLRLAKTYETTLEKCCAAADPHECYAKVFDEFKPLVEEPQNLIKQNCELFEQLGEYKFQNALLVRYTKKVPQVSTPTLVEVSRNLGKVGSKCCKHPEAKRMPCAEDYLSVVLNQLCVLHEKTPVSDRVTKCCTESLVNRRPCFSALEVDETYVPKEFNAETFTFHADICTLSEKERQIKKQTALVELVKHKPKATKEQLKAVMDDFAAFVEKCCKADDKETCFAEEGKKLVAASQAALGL

Row | Structure (SMILES) | binding to serum albumin [1] | glucose blood levels after fed ([2]; ZDF rats responding in a medium manner) | glucose blood levels after fed ([2]; ZDF rats responding very well)
1 | CCc1ccc(CCOc2ccc(CC3SC(=O)NC3=O)cc2)nc1 (stereo not drawn) [pioglitazone] | largely bound to serum albumin |  | 
2 | CN(CCOc1ccc(CC2SC(=O)NC2=O)cc1)c1ccccn1 (stereo not drawn) [rosiglitazone] |  | 120 to 140 mg/dL | ~80 mg/dL
